PMC8160969, “Organoruthenium Complexes with Benzo-Fused Pyrithiones Overcome Platinum Resistance in Ovarian Cancer Cells” (Cancers, 2021)

Biological target: T1, thioredoxin reductase (TrxR) (Rattus norvegicus, UniProt O89049)
T1 construct: gene Txnrd1; commercially available rat liver TrxR
T1 sequence (O89049 1-499): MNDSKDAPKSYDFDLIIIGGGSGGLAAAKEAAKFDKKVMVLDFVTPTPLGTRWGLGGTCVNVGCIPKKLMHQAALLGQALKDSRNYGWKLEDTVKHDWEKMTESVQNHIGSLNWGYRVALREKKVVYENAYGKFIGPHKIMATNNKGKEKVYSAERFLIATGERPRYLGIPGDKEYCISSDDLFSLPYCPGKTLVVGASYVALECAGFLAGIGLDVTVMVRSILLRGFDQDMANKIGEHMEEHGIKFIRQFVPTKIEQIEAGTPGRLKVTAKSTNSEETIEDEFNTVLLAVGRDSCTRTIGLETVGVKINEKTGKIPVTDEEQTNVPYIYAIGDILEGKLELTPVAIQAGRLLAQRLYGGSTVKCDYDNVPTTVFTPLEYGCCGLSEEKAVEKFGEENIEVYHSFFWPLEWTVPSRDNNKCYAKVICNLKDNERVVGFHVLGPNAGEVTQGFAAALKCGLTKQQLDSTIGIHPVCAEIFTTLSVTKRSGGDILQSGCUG
Test: DTNB reduction assay with NADPH and rat liver TrxR, […] min exposure, absorbance at […] nm
Type: biochemical

In the case of `Cc1ccc(C(C)C)cc1.[Cl][Ru-]1[O]N2C=Cc3ccccc3C2=[S+]1` [1a, organoruthenium(II) chlorido complex 1a], the IC50 is reported as 4.1 ± 0.16 µM.
